Source: ChEMBL document CHEMBL1201862, “PubChem BioAssay data set” (2004)
Calls of active or inactive are those of the source.

Tests used:
Caspase-6 = molecular target: T1, Caspase-6 (Homo sapiens, UniProt P55212); experiment: inhibition of CASP6 peptide cleavage – biochemical, VEID-R110 fluorescence, cherry-pick, dose response (AID 720632)
T1 sequence (P55212 whole entry): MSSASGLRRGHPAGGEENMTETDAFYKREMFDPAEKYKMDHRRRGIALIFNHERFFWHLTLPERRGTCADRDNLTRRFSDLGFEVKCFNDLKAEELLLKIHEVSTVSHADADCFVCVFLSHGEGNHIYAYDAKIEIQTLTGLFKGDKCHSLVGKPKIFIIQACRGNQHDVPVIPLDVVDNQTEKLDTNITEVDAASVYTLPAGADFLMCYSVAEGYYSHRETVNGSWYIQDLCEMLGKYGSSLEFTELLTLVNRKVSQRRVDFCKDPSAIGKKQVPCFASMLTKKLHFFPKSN

Aminopeptidase N = molecular target: T2, Aminopeptidase N (Plasmodium falciparum FcB1/Columbia, UniProt O96935); experiment: malaria alanyl aminopeptidase activity blockers – biochemical, fluorogenic H-Leu-NHMec substrate, 1536-well (AID 1445); set-up: species or system Plasmodium falciparum 3D7, 3D7
T2 sequence (O96935 whole entry): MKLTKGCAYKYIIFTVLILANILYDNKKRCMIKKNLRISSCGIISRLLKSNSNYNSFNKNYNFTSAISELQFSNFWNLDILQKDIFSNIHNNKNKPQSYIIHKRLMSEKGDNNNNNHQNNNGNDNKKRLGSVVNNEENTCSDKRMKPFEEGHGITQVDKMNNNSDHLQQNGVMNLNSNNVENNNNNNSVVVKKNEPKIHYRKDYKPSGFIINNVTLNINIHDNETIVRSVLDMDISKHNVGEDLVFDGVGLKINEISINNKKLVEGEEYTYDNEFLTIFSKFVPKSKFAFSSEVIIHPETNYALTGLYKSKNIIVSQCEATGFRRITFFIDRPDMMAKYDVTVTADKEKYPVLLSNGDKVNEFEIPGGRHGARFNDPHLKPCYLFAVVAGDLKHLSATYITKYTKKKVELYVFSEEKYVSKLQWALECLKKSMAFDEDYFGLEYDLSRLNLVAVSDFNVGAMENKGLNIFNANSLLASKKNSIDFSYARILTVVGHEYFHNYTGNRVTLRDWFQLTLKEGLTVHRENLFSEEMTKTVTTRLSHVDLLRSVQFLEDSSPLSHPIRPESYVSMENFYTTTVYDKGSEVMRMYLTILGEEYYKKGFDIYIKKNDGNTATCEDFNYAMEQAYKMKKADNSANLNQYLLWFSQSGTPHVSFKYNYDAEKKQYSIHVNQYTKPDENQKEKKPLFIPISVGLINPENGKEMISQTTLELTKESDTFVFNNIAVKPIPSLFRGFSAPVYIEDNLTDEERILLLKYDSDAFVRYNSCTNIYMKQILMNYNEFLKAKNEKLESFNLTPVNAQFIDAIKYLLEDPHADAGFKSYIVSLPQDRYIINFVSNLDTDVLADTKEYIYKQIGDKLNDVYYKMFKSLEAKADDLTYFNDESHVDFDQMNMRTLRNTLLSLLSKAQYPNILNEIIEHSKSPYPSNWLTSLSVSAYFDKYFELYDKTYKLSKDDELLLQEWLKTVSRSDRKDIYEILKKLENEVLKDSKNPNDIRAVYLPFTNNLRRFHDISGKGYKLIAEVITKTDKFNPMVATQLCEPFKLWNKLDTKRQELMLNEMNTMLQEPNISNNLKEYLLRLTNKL

[1] = Luminescence Cell-Based Dose Response to Identify Activators of Luciferase Translation or Activity in H4-C Neuroglioblastoma Cells. [Related pubchem assays: 1829 (Project Summary), 1814 (Primary HTS)]; type: functional
H4 = experiment: Luminescence Cell-Based Dose Response HTS to Identify Activators of 5'UTR Stem-Loop Driven Prion Protein mRNA Translation in H4 Neuroglioblastoma Cells. [Related pubchem assays: 1829 (Project Summary), 1814 (Primary HTS)]; type: functional; conditions: Homo sapiens
Vero = experiment: mammalian cell viability reduction – secondary assay, cytotoxicity control for West Nile virus antiviral project, dose response (AID 1650); type: functional; conditions: Chlorocebus sabaeus
[2] = Luminescence Cell-Based Dose Response to Identify Activators of 5'UTR Stem-Loop Driven Prion Protein mRNA Translation in H4-C Neuroglioblastoma Cells. [Related pubchem assays: 1829 (Project Summary), 1814 (Primary HTS)]; type: functional
[3] = Luminescence Cell-Based Dose Response HTS to Identify Activators of Luciferase Translation or Activity in H4 […] Cells. [Related pubchem assays: 1829 (Project Summary), 1814 (Primary HTS)]; type: functional
[4] = Luminescence Cell-Based Dose Confirmation to Identify Activators of 5'UTR Stem-Loop Driven Alpha-Synuclein mRNA Translation in H4 Neuroglioblastoma Cells. [Related pubchem assays: 1829 (Project Summary), 1814 (Primary HTS)]; type: functional
[5] = molecular target: T3, 1-phosphatidylinositol 4,5-bisphosphate phosphodiesterase gamma-1 (Homo sapiens, UniProt P19174); experiment: Counterscreen for inhibitors of phospholipase C isozymes (PLC-B3): Fluorescence-based biochemical high throughput dose response assay to identify inhibitors of phospholipase C isozymes (PLC-gamma1).
T3 sequence (P19174 whole entry): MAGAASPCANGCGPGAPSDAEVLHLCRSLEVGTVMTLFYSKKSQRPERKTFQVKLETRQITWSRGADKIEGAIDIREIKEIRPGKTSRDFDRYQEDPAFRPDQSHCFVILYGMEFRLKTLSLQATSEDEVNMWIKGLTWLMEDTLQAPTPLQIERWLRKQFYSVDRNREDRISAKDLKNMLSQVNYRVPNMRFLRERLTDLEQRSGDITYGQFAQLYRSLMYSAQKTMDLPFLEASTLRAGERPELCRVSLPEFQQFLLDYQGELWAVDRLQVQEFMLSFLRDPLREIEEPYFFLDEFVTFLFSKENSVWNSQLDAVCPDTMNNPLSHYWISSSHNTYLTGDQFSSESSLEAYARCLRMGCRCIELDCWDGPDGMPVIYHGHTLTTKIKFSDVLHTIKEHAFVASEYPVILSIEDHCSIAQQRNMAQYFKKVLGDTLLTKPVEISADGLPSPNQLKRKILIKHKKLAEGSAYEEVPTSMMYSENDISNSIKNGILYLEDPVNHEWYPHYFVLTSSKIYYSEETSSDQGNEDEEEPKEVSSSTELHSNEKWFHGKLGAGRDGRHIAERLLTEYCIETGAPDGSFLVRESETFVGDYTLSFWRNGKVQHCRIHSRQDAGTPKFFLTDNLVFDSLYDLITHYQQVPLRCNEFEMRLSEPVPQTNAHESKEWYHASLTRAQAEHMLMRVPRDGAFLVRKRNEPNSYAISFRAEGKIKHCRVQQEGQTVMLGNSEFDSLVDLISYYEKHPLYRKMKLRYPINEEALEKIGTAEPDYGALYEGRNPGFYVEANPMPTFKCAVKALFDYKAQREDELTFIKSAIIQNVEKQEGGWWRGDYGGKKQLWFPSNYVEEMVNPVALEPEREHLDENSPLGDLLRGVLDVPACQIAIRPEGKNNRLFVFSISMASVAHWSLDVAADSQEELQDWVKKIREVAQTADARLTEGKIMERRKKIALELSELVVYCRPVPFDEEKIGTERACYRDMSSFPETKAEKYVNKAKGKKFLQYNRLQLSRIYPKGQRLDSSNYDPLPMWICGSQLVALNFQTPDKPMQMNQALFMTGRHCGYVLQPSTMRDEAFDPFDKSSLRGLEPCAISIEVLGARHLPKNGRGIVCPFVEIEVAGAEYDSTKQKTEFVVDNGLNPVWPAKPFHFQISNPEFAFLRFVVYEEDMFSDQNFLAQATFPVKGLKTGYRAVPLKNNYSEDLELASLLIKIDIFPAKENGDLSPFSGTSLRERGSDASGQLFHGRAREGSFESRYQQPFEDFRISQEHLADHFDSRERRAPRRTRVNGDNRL

[6] = molecular target: T4, 1-phosphatidylinositol 4,5-bisphosphate phosphodiesterase beta-3 (Homo sapiens, UniProt Q01970); experiment: Fluorescence-based biochemical high throughput dose response assay to identify inhibitors of phospholipase C isozymes (PLC-B3).
T4 sequence (Q01970 whole entry): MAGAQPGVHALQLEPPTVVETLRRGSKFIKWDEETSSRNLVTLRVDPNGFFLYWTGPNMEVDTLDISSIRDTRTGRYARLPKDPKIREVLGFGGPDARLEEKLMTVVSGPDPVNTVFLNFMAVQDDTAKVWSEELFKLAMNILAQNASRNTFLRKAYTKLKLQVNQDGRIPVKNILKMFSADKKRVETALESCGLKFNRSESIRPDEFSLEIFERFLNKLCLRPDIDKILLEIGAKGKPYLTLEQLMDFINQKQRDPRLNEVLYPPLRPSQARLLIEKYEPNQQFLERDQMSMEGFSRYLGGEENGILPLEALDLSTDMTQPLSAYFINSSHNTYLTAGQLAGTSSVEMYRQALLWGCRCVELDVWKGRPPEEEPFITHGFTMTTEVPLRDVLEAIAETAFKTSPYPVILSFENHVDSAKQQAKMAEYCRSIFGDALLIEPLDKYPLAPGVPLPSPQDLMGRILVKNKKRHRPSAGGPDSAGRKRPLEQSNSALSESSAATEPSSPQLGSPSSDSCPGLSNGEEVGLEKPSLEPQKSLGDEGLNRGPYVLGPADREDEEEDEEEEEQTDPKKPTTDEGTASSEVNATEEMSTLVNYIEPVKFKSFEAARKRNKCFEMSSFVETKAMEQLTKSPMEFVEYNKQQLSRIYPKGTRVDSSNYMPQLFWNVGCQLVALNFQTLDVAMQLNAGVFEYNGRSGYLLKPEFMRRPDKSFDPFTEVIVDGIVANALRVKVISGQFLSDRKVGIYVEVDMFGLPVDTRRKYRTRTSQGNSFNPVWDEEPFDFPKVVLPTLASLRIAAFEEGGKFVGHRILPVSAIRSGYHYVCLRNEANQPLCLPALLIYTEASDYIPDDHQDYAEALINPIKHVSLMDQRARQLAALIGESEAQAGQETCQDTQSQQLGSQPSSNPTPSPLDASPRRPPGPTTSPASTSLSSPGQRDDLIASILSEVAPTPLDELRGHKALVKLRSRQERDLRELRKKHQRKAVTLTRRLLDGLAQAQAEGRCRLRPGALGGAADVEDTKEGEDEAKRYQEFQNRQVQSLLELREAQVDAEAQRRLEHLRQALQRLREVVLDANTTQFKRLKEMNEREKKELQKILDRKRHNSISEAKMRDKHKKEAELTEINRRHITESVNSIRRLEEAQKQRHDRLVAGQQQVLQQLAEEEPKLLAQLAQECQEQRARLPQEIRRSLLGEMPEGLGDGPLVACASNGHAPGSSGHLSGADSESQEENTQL

[7] = toxicity toward immortalized ovarian surface epithelium – cell-based, plate reader, dry powder samples, cytotoxicity control for PAX8 inhibitor project, dose response (AID 743045); type: functional
[8] = OVCAR-3 cell viability loss – plate reader, dry powder samples, PAX8 inhibitor project, dose response (AID 743044); type: functional, cell-based
[9] = IGROV1 cell killing – plate reader, dry powder samples, PAX8 inhibitor project, dose response (AID 743043); type: functional, cell-based; conditions: IGROV-1
[10] = reduced cellular PGC1a acetyl-lysine signal – cell-based, cherry-picked samples, dose response (AID 720514); type: functional;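 further: potency may reflect raised or lowered acetylation signal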
Leucine aminopeptidase = molecular target: T5, Leucine aminopeptidase (Plasmodium falciparum 3D7, UniProt Q8IL11); experiment: P. falciparum M17LAP inhibitors, primary screen, biochemical, fluorogenic H-Leu-NHMec substrate, 1536-well (AID 1619); type: functional
T5 sequence (Q8IL11 whole entry): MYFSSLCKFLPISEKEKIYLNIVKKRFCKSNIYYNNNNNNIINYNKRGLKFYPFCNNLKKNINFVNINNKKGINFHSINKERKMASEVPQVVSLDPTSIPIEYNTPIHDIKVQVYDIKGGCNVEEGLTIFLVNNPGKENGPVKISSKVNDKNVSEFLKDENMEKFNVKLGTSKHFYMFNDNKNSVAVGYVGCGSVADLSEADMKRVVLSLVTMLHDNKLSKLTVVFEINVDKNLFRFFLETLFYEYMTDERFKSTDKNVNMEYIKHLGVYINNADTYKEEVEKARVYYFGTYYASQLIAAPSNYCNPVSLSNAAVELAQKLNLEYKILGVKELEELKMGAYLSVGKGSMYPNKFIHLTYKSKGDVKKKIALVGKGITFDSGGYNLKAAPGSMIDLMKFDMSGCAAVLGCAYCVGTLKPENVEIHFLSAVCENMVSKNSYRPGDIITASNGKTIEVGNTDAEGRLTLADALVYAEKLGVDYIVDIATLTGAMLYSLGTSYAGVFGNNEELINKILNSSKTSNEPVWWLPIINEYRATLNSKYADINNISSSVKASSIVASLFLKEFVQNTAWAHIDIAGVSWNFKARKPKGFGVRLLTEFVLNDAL

[11] = viability loss in THP-1 monocytes – THP-1 cells, cytotoxicity control for Vif-APOBEC3G degradation inhibitor project, dose response (AID 1117359); type: functional; conditions: THP-1
[12] = viability of HCT116 lacking mutant beta-catenin – cell-based, human colon tumor, dose response (AID 1045); type: functional;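 further: HCT116 colon tumor cells with beta catenin knocked out; cells exposed to compound for 60 hours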
[13] = viability of PTEN-deleted HCT116 cells – cell-based, HCT116 PTEN knockout, dose response (AID 1047); type: functional;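 further: HCT116 colon tumor cells with PTEN knocked out; cells exposed to compound for 60 hours before readout; potency for loss of cell viability measured by luminescence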

COc1ccc(/C=C2\SC(=S)NC2=O)cc1OS(=O)(=O)c1ccc(NC(C)=O)cc1
AC50 (Caspase-6): 17 µM (active)
IC50 (Aminopeptidase N): 29.8 µM (active)

CCn1c(=N)n(CC(=O)c2ccc(Cl)c(Cl)c2)c2ccccc21
EC50 [1]: 0.474 µM (active)
EC50 (H4): > 120 µM (not active)
CC50 (Vero): 15.5 µM (active)
EC50 [2]: 0.771 µM (active)
EC50 [3]: < 0.1 µM (active)
EC50 [4]: 1.18 µM (active)

O=S(=O)(CS(=O)(=O)c1ccccc1Br)c1ccccc1Br
IC50 [5]: 44.7 µM (inactive)
IC50 [6]: > 122 µM (inactive)

COc1cccc(-c2ccc([C@@H]3[C@@H]4CN(Cc5cccc(F)c5)C[C@H]3N4)cc2)c1
AC50 [7]: 36 µM (active)
AC50 [8]: 24.4 µM (active)
AC50 [9]: 34 µM (active)
AC50 [10]: 4.26 µM (active)

O=C(O)CCC(=O)Nc1sc2c(c1C(=O)Nc1ccccc1)CCCCC2
IC50 (Leucine aminopeptidase): 47 µM (active)
AC50 (Caspase-6): 45 µM (active)

CCNS(=O)(=O)c1ccc(-c2ccc(-n3cnnn3)cc2)cc1
CC50 [11]: > 40 µM (active)

COc1cc(/C=C/C(=O)c2ccc(O)cc2)ccc1OCC#N
CC50 (Vero): 31.9 µM (active)
EC50 [12]: 1.93 µM (active)
EC50 [13]: 2.34 µM (active)

CCN(CCCNC(=O)C1CCCN(S(=O)(=O)CC)C1)c1cccc(C)c1 (centres undefined)
CC50 [11]: > 40 µM (active)

CC12CC[C@H]3[C@@H](CCC4(O)C[C@H](O)CCC34/C=N/NC(=O)c3ccccc3O)C1(O)CCC2C1=CC(=O)OC1 (some centres undefined)
CC50 (Vero): 22.2 µM (active)

CC(C)(C)c1ccc(CNc2nc(-c3ccccn3)nnc2-c2ccccc2)cc1
IC50 [5]: > 122 µM (inactive)
IC50 [6]: > 122 µM (inactive)
